The values below come from US20200354426A1 (MEDIMMUNE LIMITED, priority 2016, published 2020).

Holding throughout (assay): cAMP activity assay in assay medium (assay 1)
Common to all, as to assay type: cell-based
Common to all, as to conditions: Table 4

One assay addresses Human GLP1R (Homo sapiens, UniProt P43220). Set-up: expressed in transfected cells. The source says:
(§1) Biological Activity of Peptides in Cell-Based cAMP Activity Assay (Assay 1):
(§2) All sample dilutions were made in duplicate.

The next assay addresses T1, Human GIPr (Homo sapiens, UniProt P48546).
T1 construct: expressed in transfected cells
T1 sequence (P48546 22-466): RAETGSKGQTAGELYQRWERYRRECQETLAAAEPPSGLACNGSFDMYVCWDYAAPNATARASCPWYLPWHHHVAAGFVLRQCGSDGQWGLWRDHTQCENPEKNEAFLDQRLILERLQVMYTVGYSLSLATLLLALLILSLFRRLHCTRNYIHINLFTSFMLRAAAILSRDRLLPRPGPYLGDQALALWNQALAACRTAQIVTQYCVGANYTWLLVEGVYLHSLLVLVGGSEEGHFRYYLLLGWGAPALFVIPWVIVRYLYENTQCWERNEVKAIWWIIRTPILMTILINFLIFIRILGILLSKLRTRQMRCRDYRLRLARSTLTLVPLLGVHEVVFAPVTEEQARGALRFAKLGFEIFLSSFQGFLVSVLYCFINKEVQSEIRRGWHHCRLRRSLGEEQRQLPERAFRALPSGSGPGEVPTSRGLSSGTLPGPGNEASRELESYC
Text: as §1, §2

For the next assay, the target named is T2, Human GlucR (Homo sapiens, UniProt P47871).
T2 construct: expressed in transfected cells
Text: as §1, §2

The mark [1] stands for this setting: assay medium, read-out: hGLP1R EC50.
Setting [2] is: assay medium, read-out: hGIPR EC50.
Setting [3] is: assay medium, read-out: hGlucR EC50.

Read-outs that look alike come from different tables or passages of the source. Numbered stars: 1 amine (or outer) side, 2 acyl side, 3 side chain; on linkers, the order of the positions; unused ones are H or OH. Side chains are listed from the residue outwards. Peptide text beside a SMILES is read from it. * marks the point of attachment. γGlu = O=C(O)[C@H](CCC(=O)[*:2])N[*:1]; Palmitoyl = CCCCCCCCCCCCCCCC(=O)*; Ahx = NCCCCCC(=O)O; βAla = NCCC(=O)O

As usually defined, the EC50 is the concentration giving half of the maximal effect.

T2 sequence (P47871 26-477): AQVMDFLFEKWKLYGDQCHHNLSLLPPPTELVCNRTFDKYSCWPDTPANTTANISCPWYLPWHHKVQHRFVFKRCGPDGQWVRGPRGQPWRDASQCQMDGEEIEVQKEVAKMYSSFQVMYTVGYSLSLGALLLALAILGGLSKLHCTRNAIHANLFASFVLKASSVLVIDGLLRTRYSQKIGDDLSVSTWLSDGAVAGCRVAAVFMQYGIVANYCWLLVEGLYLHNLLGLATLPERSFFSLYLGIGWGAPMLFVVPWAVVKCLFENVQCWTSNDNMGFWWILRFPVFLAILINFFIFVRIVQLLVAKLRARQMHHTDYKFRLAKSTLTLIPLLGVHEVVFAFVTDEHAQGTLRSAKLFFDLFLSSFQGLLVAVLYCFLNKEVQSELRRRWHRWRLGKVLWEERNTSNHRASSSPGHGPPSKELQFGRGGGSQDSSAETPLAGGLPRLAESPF
Chain of Human GLP1R (P43220 24-463): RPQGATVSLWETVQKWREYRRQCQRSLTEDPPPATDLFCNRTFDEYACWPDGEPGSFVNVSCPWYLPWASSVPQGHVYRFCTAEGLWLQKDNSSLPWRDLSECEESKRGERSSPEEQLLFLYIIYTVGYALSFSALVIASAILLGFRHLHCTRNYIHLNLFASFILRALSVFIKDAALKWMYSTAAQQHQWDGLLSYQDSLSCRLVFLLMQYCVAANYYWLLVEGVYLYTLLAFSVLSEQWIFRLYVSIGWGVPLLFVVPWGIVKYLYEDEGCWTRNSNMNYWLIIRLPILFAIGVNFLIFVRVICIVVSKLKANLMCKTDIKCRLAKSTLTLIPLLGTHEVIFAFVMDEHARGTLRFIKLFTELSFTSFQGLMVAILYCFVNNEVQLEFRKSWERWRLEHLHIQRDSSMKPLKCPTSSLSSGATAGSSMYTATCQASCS

For the compound `CCCCCCCCCCCCCCCC(=O)N[C@@H](CCC(=O)NCCCC[C@H](NC(=O)[C@H](Cc1ccc(O)cc1)NC(=O)[C@H](CCCCN)NC(=O)[C@H](CO)NC(=O)[C@H](Cc1ccc(O)cc1)NC(=O)[C@H](CC(=O)O)NC(=O)[C@H](CO)NC(=O)[C@@H](NC(=O)[C@H](Cc1ccccc1)NC(=O)[C@@H](NC(=O)CNC(=O)[C@H](CCC(=O)O)NC(=O)CNC(=O)[C@@H](N)Cc1c[nH]cn1)[C@@H](C)O)[C@@H](C)O)C(=O)N[C@@H](CC(=O)O)C(=O)N[C@@H](CO)C(=O)N[C@@H](CCCNC(=N)N)C(=O)N[C@@H](CCCNC(=N)N)C(=O)N[C@@H](C)C(=O)N[C@@H](CCC(N)=O)C(=O)N[C@@H](CC(=O)O)C(=O)N[C@@H](Cc1ccccc1)C(=O)N[C@H](C(=O)N[C@@H](CCC(N)=O)C(=O)N[C@@H](Cc1c[nH]c2ccccc12)C(=O)N[C@@H](CC(C)C)C(=O)N[C@H](C(=O)N[C@@H](C)C(=O)NCC(=O)NCC(N)=O)C(C)C)C(C)C)C(=O)O` [g733] (H-HGEGTFTSDYSKYK([γGlu-Palmitoyl])DSRRAQDFVQWLVAGG-NH2), the concentration giving a half-maximal response (EC50) on Human GLP1R (hGLP1R EC50, assay medium) is 0.0231 nM; at Human GIPr (hGIPR EC50, assay medium), 817 nM; on Human GlucR (hGlucR EC50, assay medium), 62 nM.
On to `CCCCCCCCCCCCCCCC(=O)NCCC(=O)NCCCC[C@H](NC(=O)[C@H](CO)NC(=O)[C@H](CC(=O)O)NC(=O)[C@H](CC(C)C)NC(=O)[C@H](Cc1ccc(O)cc1)NC(=O)[C@H](CCC(=O)O)NC(=O)[C@H](CO)NC(=O)[C@H](Cc1ccc(O)cc1)NC(=O)[C@H](CC(=O)O)NC(=O)[C@H](CO)NC(=O)[C@@H](NC(=O)[C@H](Cc1ccccc1)NC(=O)[C@@H](NC(=O)CNC(=O)[C@H](CCC(=O)O)NC(=O)[C@H](CO)NC(=O)[C@@H](N)Cc1c[nH]cn1)[C@@H](C)O)[C@@H](C)O)C(=O)N[C@@H](CCCNC(=N)N)C(=O)N[C@@H](C)C(=O)N[C@@H](CCCNC(=N)N)C(=O)N[C@@H](CC(=O)O)C(=O)N[C@@H](Cc1ccccc1)C(=O)N[C@H](C(=O)N[C@@H](C)C(=O)N[C@@H](Cc1c[nH]c2ccccc12)C(=O)N[C@@H](CC(C)C)C(=O)N[C@@H](CCC(=O)O)C(=O)N[C@@H](C)C(=O)NCC(=O)NCC(N)=O)C(C)C` [g734] (H-HSEGTFTSDYSEYLDSK([βAla-Palmitoyl])RARDFVAWLEAGG-NH2; N-terminus assumed), for which the EC50 on Human GLP1R (setting [1]) stood at 0.0695 nM; at Human GIPr (setting [2]), 1170 nM; on Human GlucR (setting [3]) it was 82.8 nM.
Turning to `CCCCCCCCCCCCCCCC(=O)N[C@@H](CCC(=O)NCCCC[C@H](NC(=O)CNC(=O)CNC(=O)[C@H](C)NC(=O)[C@H](CCC(=O)O)NC(=O)[C@H](CC(C)C)NC(=O)[C@H](Cc1c[nH]c2ccccc12)NC(=O)[C@H](CCC(N)=O)NC(=O)[C@@H](NC(=O)[C@H](Cc1ccccc1)NC(=O)[C@H](CC(=O)O)NC(=O)[C@H](CCC(N)=O)NC(=O)[C@H](C)NC(=O)[C@H](CCCNC(=N)N)NC(=O)[C@H](CCCNC(=N)N)NC(=O)[C@H](CO)NC(=O)[C@H](CC(=O)O)NC(=O)[C@H](CC(C)C)NC(=O)[C@H](Cc1ccc(O)cc1)NC(=O)[C@H](CCCCN)NC(=O)[C@H](CO)NC(=O)[C@H](Cc1ccc(O)cc1)NC(=O)[C@H](CC(=O)O)NC(=O)[C@H](CO)NC(=O)[C@@H](NC(=O)[C@H](Cc1ccccc1)NC(=O)[C@@H](NC(=O)CNC(=O)[C@H](CCC(N)=O)NC(=O)[C@H](CO)NC(=O)[C@@H](N)Cc1c[nH]cn1)[C@@H](C)O)[C@@H](C)O)C(C)C)C(N)=O)C(=O)O` [g747], the 50% effective concentration (EC50) amounted to 3.16 nM on Human GLP1R (setting [1]), 1040 nM on Human GIPr (setting [2]) and 0.0942 nM at Human GlucR (setting [3]).
As for `CCCCCCCCCCCCCCCC(=O)N[C@@H](CCC(=O)NCCCC[C@H](NC(=O)[C@H](CO)NC(=O)[C@H](CC(=O)O)NC(=O)[C@H](CC(C)C)NC(=O)[C@H](Cc1ccc(O)cc1)NC(=O)[C@H](CCCCN)NC(=O)[C@H](CO)NC(=O)[C@H](Cc1ccc(O)cc1)NC(=O)[C@H](CC(=O)O)NC(=O)[C@H](CO)NC(=O)[C@@H](NC(=O)[C@H](Cc1ccccc1)NC(=O)[C@@H](NC(=O)CNC(=O)[C@H](CCC(N)=O)NC(=O)[C@H](CO)NC(=O)[C@@H](N)Cc1c[nH]cn1)[C@@H](C)O)[C@@H](C)O)C(=O)N[C@@H](CCCNC(=N)N)C(=O)N[C@@H](C)C(=O)N[C@@H](CCCNC(=N)N)C(=O)N[C@@H](CC(=O)O)C(=O)N[C@@H](Cc1ccccc1)C(=O)N[C@H](C(=O)N[C@@H](CCC(=O)O)C(=O)N[C@@H](Cc1c[nH]c2ccccc12)C(=O)N[C@@H](CC(C)C)C(=O)N[C@H](C(=O)N[C@@H](C)C(=O)NCC(=O)NCC(N)=O)C(C)C)C(C)C)C(=O)O` [g766] (H-HSQGTFTSDYSKYLDSK([γGlu-Palmitoyl])RARDFVEWLVAGG-NH2; N-terminus assumed), the 50% effective concentration (EC50) was 0.0702 nM on Human GLP1R (setting [1]), 47.9 nM at Human GIPr (setting [2]) and 0.00465 nM at Human GlucR (setting [3]).
For the compound `CCCCCCCCCCCCCCCC(=O)NCCCCCC(=O)NCCCC[C@H](NC(=O)[C@H](CO)NC(=O)[C@H](CC(=O)O)NC(=O)[C@H](CC(C)C)NC(=O)[C@H](Cc1ccc(O)cc1)NC(=O)[C@H](CCC(=O)O)NC(=O)[C@H](CO)NC(=O)[C@H](Cc1ccc(O)cc1)NC(=O)[C@H](CC(=O)O)NC(=O)[C@H](CO)NC(=O)[C@@H](NC(=O)[C@H](Cc1ccccc1)NC(=O)[C@@H](NC(=O)CNC(=O)[C@H](CCC(N)=O)NC(=O)[C@H](CO)NC(=O)[C@@H](N)Cc1c[nH]cn1)[C@@H](C)O)[C@@H](C)O)C(=O)N[C@@H](CCCNC(=N)N)C(=O)N[C@@H](C)C(=O)N[C@@H](CCCNC(=N)N)C(=O)N[C@@H](CC(=O)O)C(=O)N[C@@H](Cc1ccccc1)C(=O)N[C@H](C(=O)N[C@@H](CCC(=O)O)C(=O)N[C@@H](Cc1c[nH]c2ccccc12)C(=O)N[C@@H](CC(C)C)C(=O)N[C@@H](CCC(=O)O)C(=O)N[C@@H](CCCNC(=N)N)C(=O)NCC(=O)NCC(N)=O)C(C)C` [g771] (H-HSQGTFTSDYSEYLDSK([Ahx-Palmitoyl])RARDFVEWLERGG-NH2; N-terminus assumed), the EC50 at Human GLP1R (setting [1]) turned out to be 0.0175 nM; at Human GIPr (setting [2]), 37.1 nM; on Human GlucR (setting [3]), 0.00551 nM.
As to `CCCCCCCCCCCCCCCC(=O)N[C@@H](CCC(=O)NCCCC[C@H](NC(=O)[C@H](CO)NC(=O)[C@H](CC(=O)O)NC(=O)[C@H](CC(C)C)NC(=O)[C@H](Cc1ccc(O)cc1)NC(=O)[C@H](CCC(=O)O)NC(=O)[C@H](CO)NC(=O)[C@H](Cc1ccc(O)cc1)NC(=O)[C@H](CC(=O)O)NC(=O)[C@H](CO)NC(=O)[C@@H](NC(=O)[C@H](Cc1ccccc1)NC(=O)[C@@H](NC(=O)CNC(=O)[C@H](CCC(N)=O)NC(=O)[C@H](CO)NC(=O)[C@@H](N)Cc1c[nH]cn1)[C@@H](C)O)[C@@H](C)O)C(=O)N[C@@H](CCCNC(=N)N)C(=O)N[C@@H](C)C(=O)N[C@@H](CCCNC(=N)N)C(=O)N[C@@H](CC(=O)O)C(=O)N[C@@H](Cc1ccccc1)C(=O)N[C@H](C(=O)N[C@@H](C)C(=O)N[C@@H](Cc1c[nH]c2ccccc12)C(=O)N[C@@H](CC(C)C)C(=O)N[C@@H](CCC(=O)O)C(=O)N[C@@H](CCCNC(=N)N)C(=O)NCC(=O)NCC(N)=O)C(C)C)C(=O)O` [g772] (H-HSQGTFTSDYSEYLDSK([γGlu-Palmitoyl])RARDFVAWLERGG-NH2; N-terminus assumed), the EC50 at Human GLP1R (setting [1]) is 0.292 nM; on Human GIPr (setting [2]) it was 1540 nM; on Human GlucR (setting [3]), 0.184 nM.
For `CCCCCCCCCCCCCCCC(=O)N[C@@H](CCC(=O)NCCCC[C@H](NC(=O)[C@H](Cc1ccc(O)cc1)NC(=O)[C@H](CCCCN)NC(=O)[C@H](CO)NC(=O)[C@H](Cc1ccc(O)cc1)NC(=O)[C@H](CC(=O)O)NC(=O)[C@H](CO)NC(=O)[C@@H](NC(=O)[C@H](Cc1ccccc1)NC(=O)[C@@H](NC(=O)CNC(=O)[C@H](CCC(N)=O)NC(=O)[C@H](CO)NC(=O)[C@@H](N)Cc1c[nH]cn1)[C@@H](C)O)[C@@H](C)O)C(=O)N[C@@H](CC(=O)O)C(=O)N[C@@H](CO)C(=O)N[C@@H](CCC(=O)O)C(=O)N[C@@H](CCCNC(=N)N)C(=O)N[C@@H](C)C(=O)N[C@@H](CCCNC(=N)N)C(=O)N[C@@H](CC(=O)O)C(=O)N[C@@H](Cc1ccccc1)C(=O)N[C@H](C(=O)N[C@@H](C)C(=O)N[C@@H](Cc1c[nH]c2ccccc12)C(=O)N[C@@H](CC(C)C)C(=O)N[C@H](C(=O)N[C@@H](C)C(=O)NCC(=O)NCC(N)=O)C(C)C)C(C)C)C(=O)O` [g777] (H-HSQGTFTSDYSKYK([γGlu-Palmitoyl])DSERARDFVAWLVAGG-NH2; N-terminus assumed), in that order: 0.0274 nM, 4.53 nM and 0.00124 nM.
